Patent US9403813B2, “Azetidine amide derivatives as orexin receptor antagonists” (ACTELION PHARMACEUTICALS LTD, priority 2013, dated 2016)

Legend:
human orexin-1 receptor = human orexin-1 receptor (Homo sapiens (Human), UniProt O43613); experiment: Intracellular calcium measurements (FLIPR), antagonism of orexin-A response; format: cell-based; settings: CHO cells expressing human orexin-1 receptor, 3 nM orexin-A, geometric mean if determined several times, read-out: IC50 OX1
Procedure: (§1) Antagonistic activities on both orexin receptors have been measured for each example compound using the following procedure:
(§2) In Vitro Assay: Intracellular Calcium Measurements:
(§3) Chinese hamster ovary (CHO) cells expressing the human orexin-1 receptor and the human orexin-2 receptor, respectively, are grown in culture medium (Ham F-12 with L-Glutamine) containing 300 μg/mL G418, 100 U/mL penicillin, 100 μg/mL streptomycin and 10% heat inactivated fetal calf serum (FCS). The cells are seeded at 20,000 cells/well into 384-well black clear bottom sterile plates (Greiner). The seeded plates are incubated overnight at 37° C. in 5% CO2. Human orexin-A as an agonist is prepared as 1 mM stock solution in MeOH:water (1:1), diluted in HBSS containing 0.1% bovine serum albumin (BSA), NaHCO3: 0.375 g/L and 20 mM HEPES for use in the assay at a final concentration of 3 nM.
(§4) Antagonists are prepared as 10 mM stock solution in DMSO, then diluted in 384-well plates using DMSO followed by a transfer of the dilutions into in HBSS containing 0.1% bovine serum albumin (BSA), NaHCO3: 0.375 g/L and 20 mM HEPES. On the day of the assay, 50 μL of staining buffer (HBSS containing 1% FCS, 20 mM HEPES, NaHCO3: 0.375 g/L, 5 mM probenecid (Sigma) and 3 μM of the fluorescent calcium indicator fluo-4 AM (1 mM stock solution in DMSO, containing 10% pluronic) is added to each well. The 384-well cell-plates are incubated for 50 min at 37° C. in 5% CO2 followed by equilibration at rt for 30 min before measurement.
(§5) Within the Fluorescent Imaging Plate Reader (FLIPR Tetra, Molecular Devices), antagonists are added to the plate in a volume of 10 μL/well, incubated for 120 min and finally 10 μL/well of agonist is added. Fluorescence is measured for each well at 1 second intervals, and the height of each fluorescence peak is compared to the height of the fluorescence peak induced by 3 nM orexin-A with vehicle in place of antagonist. The IC50 value (the concentration of compound needed to inhibit 50% of the agonistic response) is determined and may be normalized using the obtained IC50 value of an on-plate reference compound. Optimized conditions were achieved by adjustment of pipetting speed and cell splitting regime. The calculated IC50 values may fluctuate depending on the daily cellular assay performance. Fluctuations of this kind are known to those skilled in the art. In the case where IC50 values have been determined several times for the same compound, the geometric mean has been given.

human orexin-2 receptor = human orexin-2 receptor (Homo sapiens (Human), UniProt O43614); experiment: as above; format: cell-based; settings: CHO cells expressing human orexin-2 receptor, 3 nM orexin-A, geometric mean if determined several times, read-out: IC50 OX2
Procedure: as §1, §2, §3, §4, §5

Chain of human orexin-2 receptor (O43614 whole entry): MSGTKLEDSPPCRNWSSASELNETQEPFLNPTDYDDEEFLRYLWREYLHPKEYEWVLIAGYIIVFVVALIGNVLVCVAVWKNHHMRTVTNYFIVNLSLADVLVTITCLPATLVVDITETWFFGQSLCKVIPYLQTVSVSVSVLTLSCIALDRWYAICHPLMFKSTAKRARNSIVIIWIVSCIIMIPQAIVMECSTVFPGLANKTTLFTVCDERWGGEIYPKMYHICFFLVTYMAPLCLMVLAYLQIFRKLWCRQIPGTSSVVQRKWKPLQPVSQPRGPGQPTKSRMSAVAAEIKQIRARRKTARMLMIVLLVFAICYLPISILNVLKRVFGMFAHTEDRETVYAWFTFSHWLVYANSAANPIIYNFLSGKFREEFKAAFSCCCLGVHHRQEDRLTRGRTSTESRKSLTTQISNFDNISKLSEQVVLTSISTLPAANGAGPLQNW
Chain of human orexin-1 receptor (O43613 whole entry): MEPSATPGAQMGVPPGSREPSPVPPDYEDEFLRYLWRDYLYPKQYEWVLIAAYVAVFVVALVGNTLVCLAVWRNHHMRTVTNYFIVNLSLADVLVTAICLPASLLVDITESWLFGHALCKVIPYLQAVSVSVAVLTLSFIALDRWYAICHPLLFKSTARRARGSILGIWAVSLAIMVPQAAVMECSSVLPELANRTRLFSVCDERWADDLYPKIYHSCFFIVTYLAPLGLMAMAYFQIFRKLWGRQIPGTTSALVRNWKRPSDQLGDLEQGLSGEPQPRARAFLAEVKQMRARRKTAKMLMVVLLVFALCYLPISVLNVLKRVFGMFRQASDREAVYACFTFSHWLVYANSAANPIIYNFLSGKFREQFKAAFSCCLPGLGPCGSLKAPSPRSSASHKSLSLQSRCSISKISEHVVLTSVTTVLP

| Compound | IC50 (human orexin-1 receptor) | IC50 (human orexin-2 receptor) |
| --- | --- | --- |
| O=C(c1cc(C(F)(F)F)ccc1-n1nccn1)N1CC[C@H]1c1nc(-c2ccccc2OC(F)(F)F)no1 [Example 48, (2-[1,2,3]Triazol-2-yl-5-trifluoromethyl-phenyl)-{(S)-2-[3-(2-trifluoromethoxy-phenyl)-[1,2,4]oxadiazol-5-yl]-azetidin-1-yl}-methanone] | 0.96 µM | 0.239 µM |
| Cc1cccc(-c2ocnc2C(=O)N2CC[C@H]2c2nc(-c3ccccc3OC(F)(F)F)no2)c1 [Example 49, (5-m-Tolyl-oxazol-4-yl)-{(S)-2-[3-(2-trifluoromethoxy-phenyl)-[1,2,4]oxadiazol-5-yl]-azetidin-1-yl}-methanone] | 0.223 µM | 0.305 µM |
| O=C(c1ccccc1-n1nccn1)N1CC[C@H]1c1nc(-c2ccccc2OC(F)(F)F)no1 [Example 50, (2-[1,2,3]Triazol-2-yl-phenyl)-{(S)-2-[3-(2-trifluoromethoxy-phenyl)-[1,2,4]oxadiazol-5-yl]-azetidin-1-yl}-methanone] | 0.583 µM | 0.091 µM |
| Cc1cccc(-c2scnc2C(=O)N2CC[C@H]2c2nc(-c3ccccc3OC(F)(F)F)no2)c1 [Example 51, (5-m-Tolyl-thiazol-4-yl)-{(S)-2-[3-(2-trifluoromethoxy-phenyl)-[1,2,4]oxadiazol-5-yl]-azetidin-1-yl}-methanone] | 0.276 µM | 0.342 µM |
| Cc1cccc(-c2oc(C)nc2C(=O)N2CC[C@H]2c2nc(-c3ccccc3OC(F)(F)F)no2)c1 [Example 52, (2-Methyl-5-m-tolyl-oxazol-4-yl)-{(S)-2-[3-(2-trifluoromethoxy-phenyl)-[1,2,4]oxadiazol-5-yl]-azetidin-1-yl}-methanone] | 0.357 µM | 0.309 µM |
| Cc1onc(-c2ccccc2Cl)c1C(=O)N1CC[C@H]1c1nc(-c2ccccc2OC(F)(F)F)no1 [Example 53, [3-(2-Chloro-phenyl)-5-methyl-isoxazol-4-yl]-{(S)-2-[3-(2-trifluoromethoxy-phenyl)-[1,2,4]oxadiazol-5-yl]-azetidin-1-yl}-methanone] | 1.23 µM | 1.19 µM |
| O=C(c1ccccc1-c1ccccc1)N1CC[C@H]1c1nc(-c2ccccc2OC(F)(F)F)no1 [Example 54, Biphenyl-2-yl-{(S)-2-[3-(2-trifluoromethoxy-phenyl)-[1,2,4]oxadiazol-5-yl]-azetidin-1-yl}-methanone] | 0.129 µM | 0.01 µM |
| Cc1nc(C(=O)N2CC[C@H]2c2nc(-c3cccc(Cl)c3C)no2)c(-c2ccccc2F)s1 [Example 55, {(S)-2-[3-(3-Chloro-2-methyl-phenyl)-[1,2,4]oxadiazol-5-yl]-azetidin-1-yl}-[5-(2-fluoro-phenyl)-2-methyl-thiazol-4-yl]-methanone] | 1.2 µM | 0.218 µM |
| Cc1cccc(-c2sc(C)nc2C(=O)N2CC[C@H]2c2nc(-c3cccc(Cl)c3C)no2)c1 [Example 56, {(S)-2-[3-(3-Chloro-2-methyl-phenyl)-[1,2,4]oxadiazol-5-yl]-azetidin-1-yl}-(2-methyl-5-m-tolyl-thiazol-4-yl)-methanone] | 0.436 µM | 0.28 µM |
| Cc1ccc(-c2ccccc2)c(C(=O)N2CC[C@H]2c2nc(-c3cccc(Cl)c3C)no2)c1 [Example 57, {(S)-2-[3-(3-Chloro-2-methyl-phenyl)-[1,2,4]oxadiazol-5-yl]-azetidin-1-yl}-(4-methyl-biphenyl-2-yl)-methanone] | 0.089 µM | 0.004 µM |
| Cc1nc(C(=O)N2CC[C@H]2c2nc(-c3cccc(Cl)c3C)no2)c(-c2ccccc2)s1 [Example 58, {(S)-2-[3-(3-Chloro-2-methyl-phenyl)-[1,2,4]oxadiazol-5-yl]-azetidin-1-yl}-(2-methyl-5-phenyl-thiazol-4-yl)-methanone] | 1.03 µM | 0.133 µM |
| Cc1c(Cl)cccc1-c1noc([C@@H]2CCN2C(=O)c2nc(N(C)C)sc2-c2ccccc2)n1 [Example 59, {(S)-2-[3-(3-Chloro-2-methyl-phenyl)-[1,2,4]oxadiazol-5-yl]-azetidin-1-yl}-(2-dimethylamino-5-phenyl-thiazol-4-yl)-methanone] | 0.043 µM | 0.007 µM |
| Cc1c(Cl)cccc1-c1noc([C@@H]2CCN2C(=O)c2ncsc2-c2ccccc2)n1 [Example 60, {(S)-2-[3-(3-Chloro-2-methyl-phenyl)-[1,2,4]oxadiazol-5-yl]-azetidin-1-yl}-(5-phenyl-thiazol-4-yl)-methanone] | 1.2 µM | 0.5 µM |
| Cc1c(Cl)cccc1-c1noc([C@@H]2CCN2C(=O)c2ncsc2-c2cccc(Cl)c2)n1 [Example 61, {(S)-2-[3-(3-Chloro-2-methyl-phenyl)-[1,2,4]oxadiazol-5-yl]-azetidin-1-yl}-[5-(3-chloro-phenyl)-thiazol-4-yl]-methanone] | 0.993 µM | 0.367 µM |
| Cc1ccc(-c2sc(C)nc2C(=O)N2CC[C@H]2c2nc(-c3cccc(Cl)c3C)no2)cc1 [Example 62, {(S)-2-[3-(3-Chloro-2-methyl-phenyl)-[1,2,4]oxadiazol-5-yl]-azetidin-1-yl}-(2-methyl-5-p-tolyl-thiazol-4-yl)-methanone] | 0.562 µM | 0.17 µM |
| Cc1nc(C(=O)N2CC[C@H]2c2nc(-c3cccc(Cl)c3C)no2)c(-c2ccccc2C)s1 [Example 63, {(S)-2-[3-(3-Chloro-2-methyl-phenyl)-[1,2,4]oxadiazol-5-yl]-azetidin-1-yl}-(2-methyl-5-o-tolyl-thiazol-4-yl)-methanone] | 1.13 µM | 0.448 µM |
| Cc1cccc(-n2nccn2)c1C(=O)N1CC[C@H]1c1nc(-c2cccc(Cl)c2C)no1 [Example 64, {(S)-2-[3-(3-Chloro-2-methyl-phenyl)-[1,2,4]oxadiazol-5-yl]-azetidin-1-yl}-(2-methyl-6-[1,2,3]triazol-2-yl-phenyl)-methanone] | 0.812 µM | 0.069 µM |
| Cc1c(Cl)cccc1-c1noc([C@@H]2CCN2C(=O)c2cc(OC(F)(F)F)ccc2-n2nccn2)n1 [Example 65, {(S)-2-[3-(3-Chloro-2-methyl-phenyl)-[1,2,4]oxadiazol-5-yl]-azetidin-1-yl}-(2-[1,2,3]triazol-2-yl-5-trifluoromethoxy-phenyl)-methanone] | 2.73 µM | 0.676 µM |
| Cc1c(Cl)cccc1-c1noc([C@@H]2CCN2C(=O)c2cc(C(F)(F)F)ccc2-n2nccn2)n1 [Example 66, {(S)-2-[3-(3-Chloro-2-methyl-phenyl)-[1,2,4]oxadiazol-5-yl]-azetidin-1-yl}-(2-[1,2,3]triazol-2-yl-5-trifluoromethyl-phenyl)-methanone] | 1.6 µM | 0.39 µM |
| Cc1cccc(-c2ocnc2C(=O)N2CC[C@H]2c2nc(-c3cccc(Cl)c3C)no2)c1 [Example 67, {(S)-2-[3-(3-Chloro-2-methyl-phenyl)-[1,2,4]oxadiazol-5-yl]-azetidin-1-yl}-(5-m-tolyl-oxazol-4-yl)-methanone] | 0.437 µM | 0.631 µM |
| Cc1c(Cl)cccc1-c1noc([C@@H]2CCN2C(=O)c2ccccc2-n2nccn2)n1 [Example 68, {(S)-2-[3-(3-Chloro-2-methyl-phenyl)-[1,2,4]oxadiazol-5-yl]-azetidin-1-yl}-(2-[1,2,3]triazol-2-yl-phenyl)-methanone] | 1.09 µM | 0.074 µM |
| Cc1cccc(-c2scnc2C(=O)N2CC[C@H]2c2nc(-c3cccc(Cl)c3C)no2)c1 [Example 69, {(S)-2-[3-(3-Chloro-2-methyl-phenyl)-[1,2,4]oxadiazol-5-yl]-azetidin-1-yl}-(5-m-tolyl-thiazol-4-yl)-methanone] | 0.864 µM | 0.24 µM |
| Cc1cc(C(=O)N2CC[C@H]2c2nc(-c3cccc(Cl)c3C)no2)c(-n2nccn2)cc1C [Example 70, {(S)-2-[3-(3-Chloro-2-methyl-phenyl)-[1,2,4]oxadiazol-5-yl]-azetidin-1-yl}-(4,5-dimethyl-2-[1,2,3]triazol-2-yl-phenyl)-methanone] | 0.097 µM | 0.002 µM |
| Cc1cccc(-c2oc(C)nc2C(=O)N2CC[C@H]2c2nc(-c3cccc(Cl)c3C)no2)c1 [Example 71, {(S)-2-[3-(3-Chloro-2-methyl-phenyl)-[1,2,4]oxadiazol-5-yl]-azetidin-1-yl}-(2-methyl-5-m-tolyl-oxazol-4-yl)-methanone] | 0.693 µM | 0.555 µM |
